The results in this text go back to PubChem BioAssay (NCI).

Where “and” joins values, the source holds several entries; their conditions need not be identical. Identical values can stand only once.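 Interpolation was linear, between the two tested concentrations surrounding the appropriate level; five concentrations were tested over 48 hours in 96-well plates. At the GI50, growth is halved. TGI marks complete inhibition of growth.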 A value given as a limit tells only on which side of the number the result lay.

Test systems include HCT-116 colon; RPMI-8226 leukemia; NCI-H23 lung; CCRF-CEM leukemia; IGROV1 ovarian; U251 CNS; 786-0 renal; SK-MEL-5 melanoma; SF-295 CNS; RXF 393 renal.
Holding throughout (test): NCI tumour cell line growth inhibition, 48 h

On to `CNC(=O)c1cc2c(Oc3ccc(NC(=O)C4(C(=O)Nc5ccc(F)cc5)CC4)cc3)ccnc2cc1OC`, for which the GI50 in the test with HCT-116 colon was 3.23 µM; with RPMI-8226 leukemia, 2.6 µM; in the test on NCI-H23 lung, 2.17 µM; with CCRF-CEM leukemia, 3 µM; in the test on IGROV1 ovarian, 2.32 µM; in the test on U251 CNS it was 3.51 µM. Further, the GI50 with 786-0 renal was 3.46 µM; in the test with SK-MEL-5 melanoma, 2.37 µM; in the test on SF-295 CNS it was 0.177 µM; with RXF 393 renal it was 1.58 µM. The TGI with HCT-116 colon is 14.2 µM; in the test on RPMI-8226 leukemia it was 55.9 µM; with NCI-H23 lung it was over 100 µM; with CCRF-CEM leukemia it was over 100 µM; in the test with IGROV1 ovarian it was 8.96 µM; in the test on U251 CNS, over 100 µM. The TGI with 786-0 renal is over 100 µM; with SK-MEL-5 melanoma, 6.51 µM; in the test on SF-295 CNS, 6.26 µM; in the test with RXF 393 renal, 3.53 µM.

`Cc1cc(N(CCC#N)CCC#N)ccc1/C=C1N=C(/C=C/c2ccccc2)OC(=O)N\1`: the TGI in the test on HCT-116 colon, in the test with RPMI-8226 leukemia, with NCI-H23 lung, in the test with CCRF-CEM leukemia, in the test on IGROV1 ovarian and in the test on U251 CNS was over 100 µM throughout. For the same molecule, the TGI is over 100 µM with 786-0 renal, over 100 µM in the test on SK-MEL-5 melanoma, 41.3 µM in the test on SF-295 CNS and over 100 µM with RXF 393 renal.

Take `O=S1(=O)NCCCN1CCNc1nccc(-c2c(-c3cccc(O)c3)nc3sccn23)n1`: the GI50 in the test on HCT-116 colon was 5.26 µM; in the test on RPMI-8226 leukemia, 35.9 µM; in the test with NCI-H23 lung it was 29 µM; in the test with CCRF-CEM leukemia, 13.5 µM; in the test on IGROV1 ovarian it was 11.3 µM; in the test on U251 CNS, 21.6 µM. In addition, the GI50 was 14.4 µM in the test with 786-0 renal, 1.71 µM in the test on SK-MEL-5 melanoma, 51.9 µM in the test with SF-295 CNS and 5.17 µM in the test with RXF 393 renal. Further, the TGI in the test with HCT-116 colon was 38.4 µM; with RPMI-8226 leukemia it was over 87.5 µM; with NCI-H23 lung, over 100 µM; in the test with CCRF-CEM leukemia, over 100 µM; in the test on IGROV1 ovarian, 64.4 µM; in the test on U251 CNS, over 100 µM. For the same molecule, the TGI in the test with 786-0 renal is over 100 µM; in the test with SK-MEL-5 melanoma it was 17.3 µM; in the test on SF-295 CNS, over 100 µM; in the test with RXF 393 renal it was 38.4 µM.

For `CC(=O)OCC1OC(n2cc([N+](=O)[O-])c(=O)[nH]c2=O)C(OC(C)=O)C(OC(C)=O)C1OC(C)=O` (stereo not given), the TGI in the test on HCT-116 colon, in the test with RPMI-8226 leukemia, in the test on NCI-H23 lung, with CCRF-CEM leukemia, in the test with IGROV1 ovarian and with U251 CNS was over 100 µM each time. For the same molecule, the TGI in the test with 786-0 renal, with SK-MEL-5 melanoma, with SF-295 CNS and in the test on RXF 393 renal was over 100 µM throughout.

As for `Cc1cn(C2OC(C)(CO)C(O)C2O)c(=O)[nH]c1=O` (stereo not given), the TGI with HCT-116 colon, with RPMI-8226 leukemia, with NCI-H23 lung, in the test with CCRF-CEM leukemia, with IGROV1 ovarian and in the test with U251 CNS was over 100 µM each time. Besides, the TGI with 786-0 renal, with SK-MEL-5 melanoma, with SF-295 CNS and in the test on RXF 393 renal was over 100 µM each time.

As to `O=C1C=C(O)c2[nH]c(=O)ccc2C1=O`, the TGI in the test with HCT-116 colon, with RPMI-8226 leukemia, with NCI-H23 lung, in the test with CCRF-CEM leukemia, in the test on IGROV1 ovarian and in the test on U251 CNS was over 100 µM in each case. Further, the TGI with 786-0 renal, with SK-MEL-5 melanoma, in the test on SF-295 CNS and in the test with RXF 393 renal was over 100 µM in each case.

Regarding `NC(=O)c1cccc(Nc2nccc(Nc3cccc(F)c3)n2)c1`, the GI50 with HCT-116 colon is 9.1 µM; in the test with RPMI-8226 leukemia, 11.4 µM; in the test with NCI-H23 lung, 10.6 µM; with CCRF-CEM leukemia, 8.54 µM; in the test on IGROV1 ovarian it was 6.21 µM; in the test with U251 CNS it was 14.3 µM. Besides, the GI50 is 9.15 µM in the test on 786-0 renal, 4.9 µM in the test with SK-MEL-5 melanoma, 9.82 µM in the test with SF-295 CNS and 3.72 µM with RXF 393 renal. In addition, the TGI in the test with HCT-116 colon is over 25 µM; in the test on RPMI-8226 leukemia it was over 25 µM; with NCI-H23 lung it was over 25 µM; in the test with CCRF-CEM leukemia, over 25 µM; in the test with IGROV1 ovarian, over 21.1 µM; in the test on U251 CNS, over 25 µM. Besides, the TGI was over 25 µM in the test on 786-0 renal, over 16.3 µM in the test with SK-MEL-5 melanoma, over 25 µM in the test with SF-295 CNS and 14.6 µM with RXF 393 renal.

For the molecule `CCN(CC)CCNC(=O)c1c(C)[nH]c(/C=C2\C(=O)Nc3ccc(F)cc32)c1C`, the GI50 with HCT-116 colon is 1.32 µM and 1.38 µM and 1.16 µM; with RPMI-8226 leukemia, 2.93 µM and 4.58 µM and 1.46 µM; with NCI-H23 lung it was 3.88 µM and 2.6 µM and 2.39 µM; with CCRF-CEM leukemia, 5.62 µM and 6.48 µM and 1.89 µM; in the test on IGROV1 ovarian, 1.48 µM and 2.63 µM and 2.05 µM; with U251 CNS, 5.33 µM and 3.06 µM and 2.25 µM. The GI50 in the test with 786-0 renal is 4.13 µM and 3.07 µM and 2.3 µM; in the test on SK-MEL-5 melanoma, 1.66 µM and 2.88 µM and 1.5 µM; with SF-295 CNS, > 10 µM and 4.09 µM and 10.2 µM; in the test with RXF 393 renal, 1.19 µM and 1.45 µM and 1.38 µM. The TGI in the test on HCT-116 colon was 5.25 µM and 3.85 µM and 3.09 µM; with RPMI-8226 leukemia, > 10 µM and 10.9 µM and 5.31 µM; with NCI-H23 lung, > 10 µM and 9.21 µM and 14.5 µM; in the test on CCRF-CEM leukemia it was > 10 µM and 20 µM and 8.85 µM; in the test on IGROV1 ovarian, > 10 µM and 20 µM and 15.9 µM; in the test with U251 CNS, > 10 µM and 6.34 µM and 7.54 µM. The TGI was > 10 µM and 6.16 µM and 7.76 µM in the test with 786-0 renal; 4.5 µM and 5.62 µM and 2.92 µM with SK-MEL-5 melanoma; > 10 µM and 8.23 µM and 24.1 µM in the test with SF-295 CNS; 8.47 µM and 4.56 µM and 4.37 µM in the test with RXF 393 renal.

With `C[C@H](Cn1ncnn1)Nc1ncc2cc(Oc3ccc(F)cc3F)c(=O)n(C)c2n1`, the GI50 in the test on HCT-116 colon, in the test with RPMI-8226 leukemia, in the test on NCI-H23 lung, in the test with CCRF-CEM leukemia, with IGROV1 ovarian and with U251 CNS was over 25 µM throughout. The GI50 in the test with 786-0 renal, with SK-MEL-5 melanoma, with SF-295 CNS and with RXF 393 renal was over 25 µM throughout. In addition, the TGI with HCT-116 colon, in the test on RPMI-8226 leukemia, in the test on NCI-H23 lung, with CCRF-CEM leukemia, with IGROV1 ovarian and in the test with U251 CNS was over 25 µM each time. Also, the TGI with 786-0 renal, in the test on SK-MEL-5 melanoma, with SF-295 CNS and in the test on RXF 393 renal was over 25 µM throughout.
